The assay relates to lungs. The assay can be described thus: Antigen-induced elevation of lung perfusion pressure (isolated perfused sensitized lung, ovalbumen). Conditions: Cavia porcellus; perfused lungs of ovalbumen-sensitized guinea pigs; compound in krebs fluid 30 minutes prior to second antigen dose (15 μg ovalbumen); at least four lungs per concentration; read-out: IC50 (inhibition of antigen induced broncho-constriction). Also noted: species or system guinea pig (Dunkin Hartley). As to the method:
Antigen-induced elevation of lung perfusion pressure
Male Dunkin Hartley guinea pigs (Porcellus) weighing between 450-700 g were used (four per test concentration) and were housed in cages. The animals were sensitized by two weekly exposures to 1% W/V aerosol ovalbumen. The animals were anaesthetized with 2.5 mg/kg diazepam i.p. and 1 ml/kg Hyponorm i.m. Following anaethesia, the animals were exsanguinated by severing both carotid arteries and the chest was opened and the lungs removed, split into two at the carina and both cannulated via the main lobar bronchus and connected to a perfusion system. The lungs were perfused with aerated krebs fluid (95% O2 :5% CO2) at 37° C. and 5 μg in 0.1 ml Ovalbumen was injected through an injection port proximal to each lung. Elevation of perfusion pressure by the antigen was recorded and sixty minutes later, 15 μg of ovalbumen were administered. The test compounds were added to the krebs fluid reservoir thirty minutes prior to the second antigen dose. For each weekly batch of animals used, control measurements were made without treatment (n=10 ). The second antigen response was expressed as a percentage of the first. For each test, at least four lungs from four different animals were used per concentration. The percentage inhibition of antigen induced broncho-constriction was calculated.

A word on the IC50: it is the point on the concentration scale where inhibition reaches its midpoint.

Some results are limits rather than exact numbers.

On to `CCOC(=O)C(C)c1ccc2c(c1)sc1nc(=O)ccn12` (stereo not drawn) [Example 2, Ethyl 2-oxo-2H-pyrimido[2,1-b]benzothiazole-8-α-methylacetate], for which the concentration for half-maximal inhibition (IC50) is more than 100 µM. Turning to `CC(C)OC(=O)Cc1ccc2c(c1)sc1nc(=O)cc(-c3ccccc3)n12` [Example 6, Isopropyl 2-oxo-4-phenyl-2H-pyrimido[2,1-b]benzothiazole-8-acetate], the IC50 was 1 to 10 µM.

`CCOC(=O)Cc1ccc2c(c1)sc1nc(=O)cc(-c3ccccc3)n12` [Example 3, Ethyl 2-oxo-4-phenyl-2H-pyrimido[2,1-b]benzothiazole-8-acetate]: the IC50 was found to be 1 µM.

With `CCN(CC)C(=O)Cc1ccc2c(c1)sc1nc(=O)cc(-c3ccccc3)n12` [Example 47, N,N-diethyl-2-oxo-4-phenyl-2H-pyrimido-[2,1-b]benzothiazole-8-acetamide], the 50% inhibitory concentration (IC50) amounted to 10 µM. With `CCOC(=O)Cc1ccc2c(c1)sc1nc(=O)cc(-c3ccc(Cl)cc3)n12` [Example 11, Ethyl 4-(4-chlorophenyl)-2-oxo-2H-pyrimido[2,1-b]benzothiazole-8-acetate], the IC50 was determined as 10 µM. To `CCOC(=O)C(C)(C)c1ccc2c(c1)sc1nc(=O)cc(-c3ccccc3)n12` [Example 36, Ethyl α,α-dimethyl-4-phenyl-2-oxo-2H-pyrimido[2,1-b]benzothiazole-8-acetate] belongs 1 to 10 µM. To `CCCC(C)(C(=O)OCC)c1ccc2c(c1)sc1nc(=O)cc(-c3ccccc3)n12` (stereo not drawn) [Example 38, Ethyl α-methyl-α-propyl-4-phenyl-2-oxo-2H-pyrimido[2,1-b]benzothiazole-8-acetate] belongs 1 µM; to `CCOC(=O)C(C)c1ccc2c(c1)sc1nc(=O)cc(C3CCCCC3)n12` (stereo not drawn) [Example 31, Ethyl α-methyl-4-cyclohexyl-2-oxo-2H-pyrimido[2,1-b]benzothiazole-8-acetate], less than 10 µM.

Turning to `O=C(Cc1ccc2c(c1)sc1nc(=O)cc(-c3ccccc3)n12)N1CCCCC1` [Example 48, 1-(N-piperidino)-2-(2-oxo-4-phenyl-2H-pyrimido[2,1-b]benzothiazole-8-yl)-ethanone], the 50% inhibitory concentration (IC50) was in the range of 10 to 100 µM. Consider `CCCC(CC)(C(=O)OCC)c1ccc2c(c1)sc1nc(=O)cc(-c3ccccc3)n12` (stereo not drawn) [Example 41, Ethyl α-ethyl-α-propyl-4-phenyl-2-oxo-2H-pyrimido[2,1-b]benzothiazole-8-acetate], for which the 50% inhibitory concentration (IC50) was 10 to 100 µM. `CCCCC(C(=O)OCC)c1ccc2c(c1)sc1nc(=O)cc(-c3ccccc3)n12` (stereo not drawn) [Example 34, Ethyl α-butyl-4-phenyl-2-oxo-2H-pyrimido[2,1-b]benzothiazole-8-acetate]: the IC50 lay within 1 to 10 µM. Regarding `CCOC(=O)Cc1ccc2c(c1)sc1nc(=O)cc(-c3cccc(Cl)c3)n12` [Example 14, Ethyl 4-(3-chlorophenyl)-2-oxo-2H-pyrimido[2,1-b]benzothiazole-8-acetate], the IC50 is not above 1 µM.

For `CCOC(=O)C(C)c1ccc2c(c1)sc1nc(=O)cc(-c3ccccc3)n12` (stereo not drawn) [Example 20, Ethyl α-methyl-2-oxo-4-phenyl-2H-pyrimido[2,1-b]benzothiazole-8-acetate], the concentration for half-maximal inhibition (IC50) is 0.1 µM.

Turning to `CCOC(=O)Cc1ccc2c(c1)sc1nc(=O)cc(C3CCCCC3)n12` [Example 30, Ethyl 4-cyclohexyl-2-oxo-2H-pyrimido[2,1-b]benzothiazole-8-acetate], the 50% inhibitory concentration (IC50) was in the range of 1 to 10 µM. Take `CCOC(=O)C(C)(CC)c1ccc2c(c1)sc1nc(=O)cc(-c3ccccc3)n12` (stereo not drawn) [Example 37, Ethyl α-ethyl-α-methyl-4-phenyl-2-oxo-2H-pyrimido[2,1-b]benzothiazole-8-acetate]: the half-inhibitory concentration (IC50) is 1 µM.

Take `CC(C(=O)OC1(C)CCCCC1)c1ccc2c(c1)sc1nc(=O)cc(-c3ccccc3)n12` (stereo not drawn) [Example 49, 1-Methylcyclohexyl α-methyl-2-oxo-4-phenyl-2H-pyrimido[2,1-b]benzothiazole-8-acetate]: the 50% inhibitory concentration (IC50) was in the range of 1 to 10 µM. For `CCOC(=O)C(CC)c1ccc2c(c1)sc1nc(=O)cc(-c3ccccc3)n12` (stereo not drawn) [Example 29, Ethyl α-ethyl-4-phenyl-2-oxo-2H-pyrimido[2,1-b]benzothiazole-8-acetate], the half-maximal inhibitory concentration (IC50) stood at 0.1 µM. As to `CC(C)OC(=O)C(C)c1ccc2c(c1)sc1nc(=O)cc(-c3ccccc3)n12` (stereo not drawn) [Example 35, Isopropyl α-methyl-4-phenyl-2-oxo-2H-pyrimido[2,1-b]benzothiazole-8-acetate], the IC50 is 0.1 to 1 µM. For `CCCc1cc(=O)nc2sc3cc(C(C)C(=O)OCC)ccc3n12` (stereo not drawn) [Example 24, Ethyl α-methyl-2-oxo-4-n-propyl-2H-pyrimido[2,1-b]benzothiazole-8-acetate], the concentration for half-maximal inhibition (IC50) is more than 10 µM.

`CCOC(=O)Cc1ccc2c(c1)sc1nc(=O)cc(-c3ccc(OC)cc3)n12` [Example 9, Ethyl 4-(4-methoxyphenyl)-2-oxo-2H-pyrimido[2,1-b]benzothiazole-8-acetate]: the IC50 came out at 1 µM. Regarding `CCOC(=O)C(C)c1ccc2c(c1)sc1nc(=O)cc(C(C)C)n12` (stereo not drawn) [Example 28, Ethyl α-methyl-4-isopropyl-2-oxo-2H-pyrimido[2,1-b]benzothiazole-8-acetate], the IC50 lay within 10 to 100 µM. As to `CCOC(=O)Cc1ccc2c(c1)sc1nc(=O)cc(-c3ccccc3Cl)n12` [Example 12, Ethyl 4-(2-chlorophenyl)-2-oxo-2H-pyrimido[2,1-b]benzothiazole-8-acetate], the IC50 was 0.1 to 1 µM. Then `CCCCC(C)(C(=O)OCC)c1ccc2c(c1)sc1nc(=O)cc(-c3ccccc3)n12` (stereo not drawn) [Example 42, Ethyl α-butyl-α-methyl-4-phenyl-2-oxo-2H-pyrimido[2,1-b]benzothiazole-8-acetate], with 10 to 100 µM. `CCOC(=O)C(C)c1ccc2c(c1)sc1nc(=O)cc(-c3ccc(Cl)cc3)n12` (stereo not drawn) [Example 22, Ethyl α-methyl 4-(4-chlorophenyl)-2-oxo-2H-pyrimido[2,1-b]benzothiazole-8-acetate]: the IC50 was 0.1 to 1 µM. Then `CC(C(=O)OCC(C)(C)C)c1ccc2c(c1)sc1nc(=O)cc(-c3ccccc3)n12` (stereo not drawn) [Example 43, 2,2-Dimethylpropyl α-methyl-4-phenyl-2-oxo-2H-pyrimido[2,1-b]benzothiazole-8-acetate], with 0.1 µM. Turning to `CCOC(=O)Cc1ccc2c(c1)sc1nc(=O)cc(C(C)C)n12` [Example 25, Ethyl 4-isopropyl-2-oxo-2H-pyrimido[2,1-b]benzothiazole-8-acetate], the half-inhibitory concentration (IC50) lay in the range of 10 to 100 µM.

For `CCCCOC(=O)Cc1ccc2c(c1)sc1nc(=O)cc(-c3ccccc3)n12` [Example 7, n-Butyl 2-oxo-4-phenyl-2H-pyrimido[2,1-b]benzothiazole-8-acetate], the half-inhibitory concentration (IC50) was more than 10 µM. Consider `CCOC(=O)Cc1ccc2c(c1)sc1nc(=O)cc(-c3ccc(C)cc3)n12` [Example 13, Ethyl 4-(4-methylphenyl)-2-oxo-2H-pyrimido[2,1-b]benzothiazole-8-acetate], for which the half-inhibitory concentration (IC50) is less than 1 µM. With `COC(=O)Cc1ccc2c(c1)sc1nc(=O)cc(-c3ccccc3)n12` [Example 4, Methyl 2-oxo-4-phenyl-2H-pyrimido[2,1-b]benzothiazole-8-acetate], the IC50 was 10 µM.

As to `CC(C(=O)OC12CC3CC(CC(C3)C1)C2)c1ccc2c(c1)sc1nc(=O)cc(-c3ccccc3)n12` (stereo not drawn) [Example 50, 1-Adamantyl α-methyl-2-oxo-4-phenyl-2H-pyrimido[2,1-b]benzothiazole-8-acetate], the IC50 is not above 1 µM. As to `CCOC(=O)C(C)c1ccc2c(c1)sc1nc(=O)cc(-c3cccc(Cl)c3)n12` (stereo not drawn) [Example 23, Ethyl α-methyl 4-(3-chlorophenyl) 2-oxo-2H-pyrimido[2,1-b]benzothiazole-8-acetate], the IC50 was not above 1 µM. With `CCOC(=O)Cc1ccc2c(c1)sc1nc(=O)cc(-c3ccc([N+](=O)[O-])cc3)n12` [Example 10, Ethyl 4-(4-nitrophenyl)-2-oxo-2H-pyrimido[2,1-b]benzothiazole-8-acetate], the 50% inhibitory concentration (IC50) lay within 10 to 100 µM.

Turning to `CCNC(=O)Cc1ccc2c(c1)sc1nc(=O)cc(-c3ccccc3)n12` [Example 45, N-ethyl-2-oxo-4-phenyl-2H-pyrimido[2,1-b]benzothiazole-8-acetamide], the IC50 was 10 to 100 µM. As to `CC(C(=O)OC(C)(C)C)c1ccc2c(c1)sc1nc(=O)cc(-c3ccccc3)n12` (stereo not drawn) [Example 39, t-Butyl α-methyl-4-phenyl-2-oxo-2H-pyrimido[2,1-b]benzothiazole-8-acetate], the half-maximal inhibitory concentration (IC50) came to 0.1 µM. With `CCOC(=O)C(CC)(CC)c1ccc2c(c1)sc1nc(=O)cc(-c3ccccc3)n12` [Example 40, Ethyl α,α-diethyl-4-phenyl-2-oxo-2H-pyrimido[2,1-b]benzothiazole-8-acetate], the IC50 was 10 to 100 µM. For `CCOC(=O)Cc1ccc2c(c1)sc1nc(=O)cc(C)n12` [Example 15, Ethyl 4-methyl-2-oxo-2H-pyrimido[2,1-b]benzothiazole-8-acetate], the IC50 lay in the range of 10 to 100 µM. As for `CCCCc1cc(=O)nc2sc3cc(CC(=O)OCC)ccc3n12` [Example 18, Ethyl 4-n-butyl-2-oxo-2H-pyrimido[2,1-b]benzothiazole-8-acetate], the 50% inhibitory concentration (IC50) was 10 µM. For the compound `CCCOC(=O)Cc1ccc2c(c1)sc1nc(=O)cc(-c3ccccc3)n12` [Example 5, n-Propyl 2-oxo-4-phenyl-2H-pyrimido[2,1-b]benzothiazole-8-acetate], the 50% inhibitory concentration (IC50) was less than 10 µM.

Take `CCOC(=O)C(C)c1ccc2c(c1)sc1nc(=O)cc(Cc3ccccc3)n12` (stereo not drawn) [Example 27, Ethyl α-methyl-4-benzyl-2-oxo-2H-pyrimido[2,1-b]benzothiazole-8-acetate]: the IC50 was 10 to 100 µM.

The values are drawn from patent publication US4762840A, “Pyrimido[2,1-b]benzothiazoles having antiallergic activity” (Roussel Uclaf, priority 1984, dated 1988).
